Laboratory results: patent US4745185A, “D-arabinose-1,5-diphosphate salts and methods for the treatment of diabetes” (McNeilab, Inc., priority 1985, dated 1988)

Assays:
blood glucose = assay: Epinephrine-Induced Hyperglycemic Model (EIHM), in vivo; design: species or system male Sprague-Dawley rats; conditions: for maximum % lowering (blood glucose): 100 mg/kg i.p., given 30 minutes prior to epinephrine (0.2 mg/kg i.p.), fasted rats, glucose at 45 and 90 minutes
Text: (§1) The utility of compounds of the invention of formula (I) as hypoglycemic agents may be determined by measurement of Ki values as competitive inhibitors of rat liver fructose-1,6-biphosphatase and by measurement of half-maximal concentrations as allosteric activators of rat liver 6-phosphofructo-1-kinase, both of these tests being in vitro. An in vivo test for the activity of compounds of the invention is the Epinephrine-Induced Hyperglycemic Model (EIHM). In the EIHM, male Sprague-Dawley rats from Charles River Laboratories, average weight 200-280 grams, maintained on Lab-Blox® rat chow (Wayne) and provided water ad libitum were used throughout all studies; rats were fasted 18-24 hours prior to treatment with epinephrine (0.2 mg/kg i.p.) which was given intraperitoneally. Drug or vehicle were given 30 minutes prior to epinephrine. Blood samples were taken from the tail vein for measurement of glucose changes prior to and at 45 and 90 minutes after administration of epinephrine bitartrate (Sigma Co., St. Louis, MO). Blood glucose was determined using Autoflo Glucose (Bio-Dyanamics/bmc, Indianapolis, IN).
**reported as maximum % lowering; methodology as described by G. F. Tutwiler in Biochemical Medicine, Vol. 22, pp. 204 (1979).

[1] = molecular target: T1, fructose-1,6-biphosphatase (Rattus norvegicus, UniProt P19112); assay: Rat liver fructose-1,6-biphosphatase inhibition; format: biochemical; conditions: competitive inhibitors; rat liver enzyme, in vitro
T1 construct: from tissue; host or cells: rat liver
T1 sequence (P19112 2-363 limits assumed): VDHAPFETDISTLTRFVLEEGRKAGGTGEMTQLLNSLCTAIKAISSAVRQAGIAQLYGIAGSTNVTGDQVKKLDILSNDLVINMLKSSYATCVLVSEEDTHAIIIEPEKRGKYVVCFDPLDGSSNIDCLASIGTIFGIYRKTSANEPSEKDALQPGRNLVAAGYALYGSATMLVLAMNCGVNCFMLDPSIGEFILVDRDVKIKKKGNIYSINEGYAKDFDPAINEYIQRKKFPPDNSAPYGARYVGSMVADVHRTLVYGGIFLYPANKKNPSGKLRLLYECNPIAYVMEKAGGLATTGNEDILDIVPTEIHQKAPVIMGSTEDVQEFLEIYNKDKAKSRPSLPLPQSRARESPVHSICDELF
Text: as §1
1. Rat liver fructose-1,6-biphosphatase inhibition*:
*Methodology as described by S. J. Benkovic, et al. in Biochemistry, Vol. 10, No. 26, pp. 4881-4887 (1971).

6-phosphofructo-1-kinase [2] = molecular target: T2, 6-phosphofructo-1-kinase (Rattus norvegicus, UniProt P30835); assay: Allosteric activation of rat liver 6-phosphofructo-1-kinase; format: biochemical; conditions: rat liver enzyme, in vitro; read-out: half-maximal concentration, allosteric activation
T2 construct: from tissue; host or cells: rat liver
T2 sequence (P30835 2-780 limits assumed): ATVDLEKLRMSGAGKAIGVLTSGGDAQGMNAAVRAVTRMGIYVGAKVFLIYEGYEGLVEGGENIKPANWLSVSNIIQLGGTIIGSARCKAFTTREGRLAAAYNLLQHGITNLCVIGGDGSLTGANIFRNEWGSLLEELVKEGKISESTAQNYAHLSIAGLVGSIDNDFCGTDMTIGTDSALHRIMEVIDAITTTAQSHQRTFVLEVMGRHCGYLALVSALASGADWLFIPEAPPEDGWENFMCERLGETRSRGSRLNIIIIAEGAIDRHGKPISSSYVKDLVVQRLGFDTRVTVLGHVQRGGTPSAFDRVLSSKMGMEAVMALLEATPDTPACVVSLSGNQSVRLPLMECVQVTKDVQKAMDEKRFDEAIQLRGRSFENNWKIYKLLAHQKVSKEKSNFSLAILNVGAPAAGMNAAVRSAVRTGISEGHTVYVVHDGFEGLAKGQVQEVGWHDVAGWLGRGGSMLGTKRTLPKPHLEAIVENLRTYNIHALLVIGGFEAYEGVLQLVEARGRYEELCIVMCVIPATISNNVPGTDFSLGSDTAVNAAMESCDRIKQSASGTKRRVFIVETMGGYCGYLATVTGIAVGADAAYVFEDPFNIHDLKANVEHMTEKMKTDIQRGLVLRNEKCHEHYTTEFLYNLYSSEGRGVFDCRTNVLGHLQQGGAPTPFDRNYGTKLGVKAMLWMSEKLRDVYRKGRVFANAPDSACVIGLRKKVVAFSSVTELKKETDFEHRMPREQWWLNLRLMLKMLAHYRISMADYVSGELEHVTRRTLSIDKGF
Text: as §1
2. Allosteric activation of rat liver 6-phosphofructo-1-kinase
reported as half-maximal concentrations; methodology as described by S. J. Pilkis, et al. in The Journal of Biol. Chem., Vol. 256, pp. 3171 (1981).

[3] = test system: fructose-1,6-biphosphatase; conditions: cited from earlier work
6-phosphofructo-1-kinase [4] = conditions: cited from earlier work

Ki [1] | EC50 (6-phosphofructo-1-kinase [2]) | SMILES | maximum % lowering (blood glucose) (blood glucose) | inhibition of fructose-1,6-biphosphatase (in words) [3] | stimulation of 6-phosphofructo-1-kinase (in words) (6-phosphofructo-1-kinase [4]) | part of the drug effect due to the cyclohexylamine base (blood glucose; cyclohexylamine base used to crystallize Example 1d, Example 1d at 100 mg/kg i.p.)
3400 nM | 1000 nM | O=P(O)(O)OC[C@H]1O[C@@H](OP(=O)(O)O)[C@@H](O)[C@@H]1O [Example 1d, β-D-Arabinose-1,5-diphosphate] | 85% | – | – | –
100 to 200 nM | 50 nM | O=P(O)(O)OC[C@H]1O[C@@](CO)(OP(=O)(O)O)[C@@H](O)[C@@H]1O [Compound (A), β-D-fructose-2,6-diphosphate, reference compound] | 0% | deactivates gluconeogenesis by inhibiting fructose-1,6-biphosphatase | activates glycolysis by stimulating 6-phosphofructo-1-kinase | –
– | – | NC1CCCCC1 [cyclohexylamine] | – | – | – | approximately one-half of the drug effect
30000 to 40000 nM | 500 nM | O=P(O)(O)OC[C@H]1O[C@H](OP(=O)(O)O)[C@@H](O)[C@@H]1O [Example 2b, α-D-Arabinose-1,5-diphosphate] | – | – | – | –
